{"source": "patent US4265901A", "about": "“2-Oxybenzimidazoline compounds” (priority 1979, dated 1981)", "key": {"two-spotted spider mite": {"test_system": "two-spotted spider mite", "assay": "Two-spotted spider mite test; also: ranges in brackets are in %", "format": "in vivo, Tetranychus urticae", "settings": "4 days", "method": "In this evaluation, each compound to be tested was dissolved in a 1:1 mixture of acetone and ethanol containing a small amount of Toximul R and Toximul S (each a sulfonate/nonionic blend produced by Stephan Chemical Company, Northfield, Ill.). The solution was then diluted with distilled water to a concentration of 1000 ppm of test compound. Lesser concentration formulations were made by diluting a portion of the 1000 ppm solution with distilled water containing 225 mg. of Toximul R and 125 mg. of Toximul S per liter.\nThis test was conducted with nymphs and adults of Tetranychus urticae (Koch), Order Acarina, Family Tetranychidae.\nThis test was run using blue hubbard squash plants which were grown in vermiculite (insulation grade No. 1) in 5 oz. plastic Dixie cups. One cotyledon is removed from each plant to remain in the cups. On retests two plants were left in each cup and on regular initial tests one plant was left in each cup. Each cotyledon is infested by placing a mite infested trifoliate bean leaf on if. Infected plants in cups were held for one day, then sprayed to wetting with formulations containing 1000 ppm of the test compound, using the DeVilbiss atomizer with 5-6 psi air pressure. Retests were run at 100 ppm. Tests were read four days after treatment. Two unsprayed but infested plants were held as a control. Two infested plants were sprayed with a formulation containing 750 ppm of galecron [N'-(4-chloro-o-tolyl)-N,N-dimethylformamidine monohydrochloride] as a reference standard."}, "Southern armyworm": {"test_system": "Southern armyworm", "assay": "Southern armyworm test; also: ranges in brackets are in %", "format": "in vivo, Spodoptera eridania", "settings": "1000 ppm, 4 days", "method": "In this evaluation, each compound to be tested was dissolved in a 1:1 mixture of acetone and ethanol containing a small amount of Toximul R and Toximul S (each a sulfonate/nonionic blend produced by Stephan Chemical Company, Northfield, Ill.). The solution was then diluted with distilled water to a concentration of 1000 ppm of test compound.\nThis test was conducted with second to third instar larvae of Spodoptera eridania Cramer, Order Lepidoptera, Family Noctuidae. Uniform larvae (3rd instar) about 1 to 1.2 cm. in length were picked by hand from flats of Henderson lima beans and placed in plastic petri dishes.\nThe procedure otherwise was the same as used with the Mexican bean beetle reported above, except that 5 ml. of a formulation containing 100 ppm (0.01%) DDT [1,1,1-trichloro-2,2-bis(p-chlorophenyl)ethane] was used as the reference standard."}, "Corn [1]": {"test_system": "Corn", "assay": "Post-emergence herbicide test, corn", "format": "in vivo, Zea mays", "method": "(§1) In this evaluation, each compound to be tested was dissolved in a 1:1 mixture of acetone and ethanol containing a small amount of Toximul R and Toximul S (each a sulfonate/nonionic blend produced by Stepan Chemical Company, Northfield, Illinois). The solution was then diluted with deionized water to a composition of the following concentrations, by weight: Plant species used as indicators of herbicidal activity were planted in galvanized pans (flats) 31.5 cm. long, 21.5 cm. wide, and 8.0 cm. deep. The bottoms of the flats had holes to facilitate drainage. The soil used was a 1:1 ratio by volume of masonry sand and shredded top soil. Seeds of seven indicator species were planted in rows perpendicular to the long axis of the flat, one species per row, and covered with 0.5 to 1.0 cm. of sterilized soil. Indicator species and approximate number of seeds planted were as follows: Flats that were to receive preemergence treatments were planted one day prior to, or on the same day treatments were applied. Flats that were to receive postemergence treatments were planted 9 days prior to treatment and placed in a growth chamber until the day of treatment. In the growth chamber, flats received 12 to 18 hours of light per day and were subject to temperatures of 75° to 85° F. The formulated test compound was applied uniformly to the indicator species with a modified DeVilbiss atomizer using air pressure of 3 to 5 psi. Each flat received 12.5 ml. of spray solution which was equal to 200 gallons/acre total spray volume. Plants were maintained in a greenhouse after treatment. Herbicidal effects of chemicals were evaluated by two injury rating systems 18 days after preemergence applications and 14 days after postemergence applications. The degree of plant injury was based on a 1 to 5 scale and a single numerical rating was assigned to each test species as follows: […]"}, "Pigweed [2]": {"test_system": "Pigweed", "assay": "Post-emergence herbicide test, pigweed", "format": "in vivo, Amaranthus retroflexus", "method": "as §1"}, "Velvetleaf": {"test_system": "Velvetleaf", "assay": "Post-emergence herbicide test, velvetleaf", "format": "in vivo, Abutilon theophrasti", "method": "as §1"}, "Foxtail [3]": {"test_system": "Foxtail", "assay": "Post-emergence herbicide test, foxtail", "format": "in vivo, Setaria italica", "method": "as §1"}, "Large Crabgrass [4]": {"test_system": "Large Crabgrass", "assay": "Pre-emergence herbicide test, large crabgrass", "format": "in vivo, Digitaria sanguinalis", "method": "as §1"}, "Pigweed [5]": {"test_system": "Pigweed", "assay": "Pre-emergence herbicide test, pigweed", "format": "in vivo, Amaranthus retroflexus", "method": "as §1"}, "Morning-glory": {"test_system": "Morning-glory", "assay": "Pre-emergence herbicide test, morningglory", "format": "in vivo, Ipomoea purpurea", "method": "as §1"}, "Large Crabgrass [6]": {"test_system": "Large Crabgrass", "assay": "Post-emergence herbicide test, large crabgrass", "format": "in vivo, Digitaria sanguinalis", "method": "as §1"}, "Zinnia [7]": {"test_system": "Zinnia", "assay": "Pre-emergence herbicide test, zinnia", "format": "in vivo, Zinnia elegans", "method": "as §1"}, "Zinnia [8]": {"test_system": "Zinnia", "assay": "Post-emergence herbicide test, zinnia", "format": "in vivo, Zinnia elegans", "method": "as §1"}, "Foxtail [9]": {"test_system": "Foxtail", "assay": "Pre-emergence herbicide test, foxtail", "format": "in vivo, Setaria italica", "method": "as §1"}, "Corn [10]": {"test_system": "Corn", "assay": "Pre-emergence herbicide test, corn", "format": "in vivo, Zea mays", "method": "as §1"}}, "note": "Several values for one entry are separate records, joined by “and”; a condition that tells them apart may be missing. Equal entries are not always repeated. Structures can show the parent of a compound that is named as a salt."}
{"smiles": "O=[N+]([O-])c1cc(C(F)(F)F)cc2c1NC(O)(C(F)(F)C(F)F)N2", "note": "(stereo not drawn) [Example 2, 2-Hydroxy-2-(1,1,2,2-Tetrafluoroethyl)-4-Nitro-6-(Trifluoromethyl)Benzimidazoline, Sodium Salt, and Hydrate]", "values": [{"measurement": "2-Sp. Spider Mite Cont. (mortality rating)", "setting": "two-spotted spider mite; 100 ppm", "result": "3 (100)"}, {"measurement": "2-Sp. Spider Mite Cont. (mortality rating)", "setting": "two-spotted spider mite; 1000 ppm", "result": "3 (100)"}, {"measurement": "Southern Armyworm Stom. (mortality rating)", "setting": "Southern armyworm", "result": "0 (0)"}, {"measurement": "plant injury rating", "setting": "Corn [1]; 1/2 lb/A", "result": "1 (no injury)"}, {"measurement": "plant injury rating", "setting": "Corn [1]; 1/4 lb/A", "result": "1 (no injury)"}, {"measurement": "plant injury rating", "setting": "Corn [1]; 2 lb/A", "result": 3, "unit": "BS"}, {"measurement": "plant injury rating", "setting": "Corn [1]; 4 lb/A", "result": 3, "unit": "BS"}, {"measurement": "plant injury rating", "setting": "Corn [1]; 8 lb/A", "result": 5, "unit": "D"}, {"measurement": "plant injury rating", "setting": "Pigweed [2]; 1/2 lb/A", "result": 4, "unit": "BS"}, {"measurement": "plant injury rating", "setting": "Pigweed [2]; 1/4 lb/A", "result": 3, "unit": "BS"}, {"measurement": "plant injury rating", "setting": "Pigweed [2]; 1 lb/A", "result": 5, "unit": "D"}, {"measurement": "plant injury rating", "setting": "Pigweed [2]; 2 lb/A", "result": 5, "unit": "D"}, {"measurement": "plant injury rating", "setting": "Pigweed [2]; 4 lb/A", "result": 5, "unit": "D"}, {"measurement": "plant injury rating", "setting": "Pigweed [2]; 8 lb/A", "result": 5, "unit": "D"}, {"measurement": "plant injury rating", "setting": "Velvetleaf; 1/2 lb/A", "result": 2, "unit": "SB"}, {"measurement": "plant injury rating", "setting": "Velvetleaf; 1/4 lb/A", "result": 2, "unit": "B"}, {"measurement": "plant injury rating", "setting": "Velvetleaf; 1 lb/A, Hydrate", "result": "3BS and 4BS"}, {"measurement": "plant injury rating", "setting": "Velvetleaf; 2 lb/A", "result": 5, "unit": "D"}, {"measurement": "plant injury rating", "setting": "Velvetleaf; 4 lb/A", "result": 5, "unit": "D"}, {"measurement": "plant injury rating", "setting": "Velvetleaf; 8 lb/A", "result": 5, "unit": "D"}, {"measurement": "plant injury rating", "setting": "Foxtail [3]; 1/2 lb/A", "result": 3, "unit": "BS"}, {"measurement": "plant injury rating", "setting": "Foxtail [3]; 1/4 lb/A", "result": 3, "unit": "BS"}, {"measurement": "plant injury rating", "setting": "Foxtail [3]; 1 lb/A", "result": 4, "unit": "BS"}, {"measurement": "plant injury rating", "setting": "Foxtail [3]; 2 lb/A", "result": 4, "unit": "BS"}, {"measurement": "plant injury rating", "setting": "Foxtail [3]; 4 lb/A", "result": 4, "unit": "BS"}, {"measurement": "plant injury rating", "setting": "Foxtail [3]; 8 lb/A", "result": 5, "unit": "D"}, {"measurement": "plant injury rating", "setting": "Large Crabgrass [4]; 1/2 lb/A", "result": "1 (no injury)"}, {"measurement": "plant injury rating", "setting": "Large Crabgrass [4]; 1/4 lb/A", "result": "1 (no injury)"}, {"measurement": "plant injury rating", "setting": "Large Crabgrass [4]; 1 lb/A, Hydrate", "result": "3S and 2S"}, {"measurement": "plant injury rating", "setting": "Large Crabgrass [4]; 2 lb/A", "result": 4, "unit": "RS"}, {"measurement": "plant injury rating", "setting": "Large Crabgrass [4]; 4 lb/A", "result": 4, "unit": "RS"}, {"measurement": "plant injury rating", "setting": "Large Crabgrass [4]; 8 lb/A", "result": 5, "unit": "N"}, {"measurement": "plant injury rating", "setting": "Pigweed [5]; 1/2 lb/A", "result": 2, "unit": "S"}, {"measurement": "plant injury rating", "setting": "Pigweed [5]; 1/4 lb/A", "result": "1 (no injury)"}, {"measurement": "plant injury rating", "setting": "Pigweed [5]; 2 lb/A", "result": 4, "unit": "SR"}, {"measurement": "plant injury rating", "setting": "Pigweed [5]; 4 lb/A", "result": 4, "unit": "RS"}, {"measurement": "plant injury rating", "setting": "Pigweed [5]; 8 lb/A", "result": 5, "unit": "D"}, {"measurement": "plant injury rating", "setting": "Morning-glory; 1/2 lb/A", "result": "1 (no injury)"}, {"measurement": "plant injury rating", "setting": "Morning-glory; 1/4 lb/A", "result": "1 (no injury)"}, {"measurement": "plant injury rating", "setting": "Morning-glory; 1 lb/A", "result": "1 (no injury)"}, {"measurement": "plant injury rating", "setting": "Morning-glory; 2 lb/A", "result": 2, "unit": "B"}, {"measurement": "plant injury rating", "setting": "Morning-glory; 4 lb/A", "result": 4, "unit": "BS"}, {"measurement": "plant injury rating", "setting": "Morning-glory; 8 lb/A", "result": 5, "unit": "N"}, {"measurement": "plant injury rating", "setting": "Large Crabgrass [6]; 1/2 lb/A", "result": 3, "unit": "BS"}, {"measurement": "plant injury rating", "setting": "Large Crabgrass [6]; 1/4 lb/A", "result": 2, "unit": "BS"}, {"measurement": "plant injury rating", "setting": "Large Crabgrass [6]; 1 lb/A", "result": 4, "unit": "BS"}, {"measurement": "plant injury rating", "setting": "Large Crabgrass [6]; 2 lb/A", "result": 5, "unit": "D"}, {"measurement": "plant injury rating", "setting": "Large Crabgrass [6]; 4 lb/A", "result": 5, "unit": "D"}, {"measurement": "plant injury rating", "setting": "Large Crabgrass [6]; 8 lb/A", "result": 5, "unit": "D"}, {"measurement": "plant injury rating", "setting": "Zinnia [7]; 1/2 lb/A", "result": "1 (no injury)"}, {"measurement": "plant injury rating", "setting": "Zinnia [7]; 1/4 lb/A", "result": "1 (no injury)"}, {"measurement": "plant injury rating", "setting": "Zinnia [7]; 1 lb/A", "result": "1 (no injury)"}, {"measurement": "plant injury rating", "setting": "Zinnia [7]; 2 lb/A", "result": 2, "unit": "S"}, {"measurement": "plant injury rating", "setting": "Zinnia [7]; 4 lb/A", "result": 4, "unit": "BS"}, {"measurement": "plant injury rating", "setting": "Zinnia [7]; 8 lb/A", "result": 5, "unit": "D"}, {"measurement": "plant injury rating", "setting": "Zinnia [8]; 1/2 lb/A", "result": 3, "unit": "BS"}, {"measurement": "plant injury rating", "setting": "Zinnia [8]; 1/4 lb/A", "result": 3, "unit": "BS"}, {"measurement": "plant injury rating", "setting": "Zinnia [8]; 2 lb/A", "result": 5, "unit": "D"}, {"measurement": "plant injury rating", "setting": "Zinnia [8]; 4 lb/A", "result": 5, "unit": "D"}, {"measurement": "plant injury rating", "setting": "Zinnia [8]; 8 lb/A", "result": 5, "unit": "D"}, {"measurement": "plant injury rating", "setting": "Foxtail [9]; 1/2 lb/A", "result": "1 (no injury)"}, {"measurement": "plant injury rating", "setting": "Foxtail [9]; 1/4 lb/A", "result": "1 (no injury)"}, {"measurement": "plant injury rating", "setting": "Foxtail [9]; 1 lb/A", "result": "1 (no injury)"}, {"measurement": "plant injury rating", "setting": "Foxtail [9]; 2 lb/A", "result": 2, "unit": "S"}, {"measurement": "plant injury rating", "setting": "Foxtail [9]; 4 lb/A", "result": 2, "unit": "S"}, {"measurement": "plant injury rating", "setting": "Foxtail [9]; 8 lb/A", "result": 5, "unit": "N"}, {"measurement": "plant injury rating", "setting": "Corn [10]; 1/2 lb/A", "result": "1 (no injury)"}, {"measurement": "plant injury rating", "setting": "Corn [10]; 1/4 lb/A", "result": "1 (no injury)"}, {"measurement": "plant injury rating", "setting": "Corn [10]; 1 lb/A", "result": "1 (no injury)"}, {"measurement": "plant injury rating", "setting": "Corn [10]; 2 lb/A", "result": "1 (no injury)"}, {"measurement": "plant injury rating", "setting": "Corn [10]; 4 lb/A", "result": "1 (no injury)"}, {"measurement": "plant injury rating", "setting": "Corn [10]; 8 lb/A", "result": 3, "unit": "SB"}]}
